Our source for the IC50 values is patent US12630563B2, “Macrocyclic RIP2-kinase inhibitors” (Oncodesign S.A., priority 2020, dated 2026).

The assay concerns the target T1, recombinant hRIPK2 protein (kinase domain aa 1-299-His-tagged) (Homo sapiens, UniProt O43353).
T1 construct: kinase domain aa 1-299-His-tagged; purchased Life Technologies PR7829A
Put plainly: RIPK2 AlphaLISA assay (displacement of bead-bound CZC-8004 from hRIPK2). In kind it is binding. As to conditions: recombinant hRIPK2 kinase domain 10 nM, 2 h at 23° C. An excerpt: RIPK2 AlphaLISA® Assay (Amplified Luminescent Proximity Homogeneous Assay)
A non-specific kinase inhibitor (CZC-8004 Cayman #916603-07-1) bound to an acceptor bead (#6772001 PerkinElmer) was mixed to the recombinant hRIPK2 protein (kinase domain aa 1-299-His-tagged—Life Technologies PR7829A) and a Ni2+-tagged donor beads (#AS101D PerkinElmer). In the presence of an inhibitor, the compound beads displacement from hRIPK2 was followed by signal loss. In a 384-well ProxiPlate@ (Perkin Elmer, 6008280) add:
2 μL RIPK2 inhibitor (in DMSO 0.8%).
2 μL human recombinant RIPK2 (10 nM diluted in AlphaLISA buffer 1×).
4 μL Mix of […] 1/1000 in AlphaLISA buffer 1×.
Homogenize using a microtiter plate shaker and incubate for 2 h at 23° C.
Read using EnVision®-Alpha Reader (PerkinElmer) according to manufacturer specifications.
On the technique in general: In Alpha technology, singlet oxygen from a donor bead excites a nearby acceptor bead.

SMILES strings stand for the structures. A value given as a limit tells only on which side of the number the result lay.

T1 sequence (O43353 1-299): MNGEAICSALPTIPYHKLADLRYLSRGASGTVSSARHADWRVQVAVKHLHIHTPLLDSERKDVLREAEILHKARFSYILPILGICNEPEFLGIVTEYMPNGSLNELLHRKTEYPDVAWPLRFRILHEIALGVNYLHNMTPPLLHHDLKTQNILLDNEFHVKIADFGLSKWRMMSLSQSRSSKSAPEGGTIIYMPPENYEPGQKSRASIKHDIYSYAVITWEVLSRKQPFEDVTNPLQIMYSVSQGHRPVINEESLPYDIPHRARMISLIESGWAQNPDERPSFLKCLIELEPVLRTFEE

As for `CCO[C@@H]1C[C@H]2COc3nc4c(cnn4cc3C)-c3cc(cc(OC)c3)NCCN2C1=O` [Example 39, (2^3Z,2^4E,5^2S,5^4R)-5^4-ethoxy-1^5-methoxy-2^6-methyl-3-oxa-8-aza-2(3,5)-pyrazolo[1,5-a]96yrimidine-5(2,1)-pyrrolidina-1(1,3)-benzenacyclooctaphan-5^5-one], the IC50 (as a rule, the midpoint of a concentration-inhibition curve) is < 10 nM.
In the case of `COCC#Cc1cc2cc(c1)-c1cnn3ccc(nc13)OC[C@@H]1C[C@@H](OCCOC)C(=O)N1CCN2` [Example 100, (12R,14S)-12-(2-methoxyethoxy)-4-(3-methoxyprop-1-yn-1-yl)-16-oxa-7,10,20,21,24-pentaazapentacyclo[15.5.2.1^2,6.0^1°,^14.0^2°,^23]pentacosa-1(23),2(25),3,5,17(24),18,21-heptaen-11-one] it was 10 to 100 nM; in that of `O=C1[C@H](OC2CC2)C[C@H]2COc3ccn4ncc(c4n3)-c3cc(F)cc(c3)NCCN12` [Example 80, (12R,14S)-12-cyclopropoxy-4-fluoro-16-oxa-7,10,20,21,24-pentaazapentacyclo[15.5.2.1^2,6.0^1°,^14.0^2°,^23]pentacosa-1(23),2(25),3,5,17(24),18,21-heptaen-11-one], < 10 nM.
The value for `CO[C@@H]1C[C@H]2COc3ccn4ncc(c4n3)-c3cc(F)cc(c3)N(C)CCN2C1=O` [Example 75, (12R,14S)-4-fluoro-12-methoxy-7-methyl-16-oxa-7,10,20,21,24-pentaazapentacyclo[15.5.2.1^2,6.0^1°,^14.0^2°,^23]pentacosa-1(23),2(25),3,5,17(24),18,21-heptaen-11-one] was 10 to 100 nM.
The value for `COCc1cn2ncc3c2nc1OC[C@@H]1C[C@@H](OC)C(=O)N1CCNc1cc(F)cc-3c1` [Example 33, (12R,14S)-4-fluoro-12-methoxy-18-(methoxymethyl)-16-oxa-7,10,20,21,24-pentaazapentacyclo[15.5.2.1^2,6.0^10,^14.0^20,^23]pentacosa-1(23),2(25),3,5,17(24),18,21-heptaen-11-one] was < 10 nM; that for `CO[C@@H]1C[C@H]2COc3ccn4ncc(c4n3)-c3cc(cc(-n4ncc(C)c4C)c3)NCCN2C1=O` [Example 84, (12R,14S)-4-(4,5-dimethyl-1H-pyrazol-1-yl)-12-methoxy-16-oxa-7,10,20,21,24-pentaazapentacyclo[15.5.2.1^2,6.0^1°,^14.0^2°,^23]pentacosa-1(23),2(25),3,5,17(24),18,21-heptaen-11-one] was < 10 nM.
Turning to `CO[C@@H]1C[C@H]2C(C)Oc3ccn4ncc(c4n3)-c3cc(F)cc(c3)NCCN2C1=O` (relative stereo) [Example 103, E1-(12R,14S,15R*)-4-fluoro-12-methoxy-15-methyl-16-oxa-7,10,20,21,24-pentaazapentacyclo[15.5.2.1^2,6.0^10,^14.0^20,^23]pentacosa-1(23),2,4,6(25),17(24),18,21-heptaen-11-one], the IC50 fell in the range of 10 to 100 nM.
As for `CO[C@@H]1C[C@H]2COc3ccn4ncc(c4n3)-c3cc(cc(C4CC4)c3)NCCN2C1=O` [Example 108, (12R,14S)-4-cyclopropyl-12-methoxy-16-oxa-7,10,20,21,24-pentaazapentacyclo[15.5.2.1^2,6.0^10,^14.0^20,^23]pentacosa-1(23),2,4,6(25),17(24),18,21-heptaen-11-one], the IC50 fell in the range of 100 to 11000 nM.
In the case of `CO[C@@H]1C[C@H]2COc3ccn4ncc(c4n3)-c3cc(cc(-n4nccc4C)c3)NCCN2C1=O` [Example 43, (12R,14S)-12-methoxy-4-(5-methyl-1H-pyrazol-1-yl)-16-oxa-7,10,20,21,24-pentaazapentacyclo[15.5.2.1^2,6.0^10,^14.0^20,^23]pentacosa-1(23),2(25),3,5,17(24),18,21-heptaen-11-one] it was < 10 nM; in that of `CCO[C@@H]1C[C@H]2COc3ccn4ncc(c4n3)-c3cc(cc(C(N)=O)c3)NCCN2C1=O` [Example 60, (12R,14S)-12-ethoxy-11-oxo-16-oxa-7,10,20,21,24-pentaazapentacyclo[15.5.2.1^2,6.0^10,^14.0^20,^23]pentacosa-1(23),2(25),3,5,17(24),18,21-heptaene-4-carboxamide], < 10 nM; in that of `COCCc1cn2ncc3c2nc1OC[C@@H]1C[C@@H](OC)C(=O)N1CCNc1cc(F)cc-3c1` [Example 77, (12R,14S)-4-fluoro-12-methoxy-18-(2-methoxyethyl)-16-oxa-7,10,20,21,24-pentaazapentacyclo[15.5.2.1^2,6.0^1°,^14.0^2°,^23]pentacosa-1(23),2(25),3,5,17(24),18,21-heptaen-11-one], < 10 nM.
The value for `CCc1cc2cc(c1)-c1cnn3ccc(nc13)OC[C@@H]1C[C@@H](OC)C(=O)N1CCN2` [Example 21, (12R,14S)-4-ethyl-12-methoxy-16-oxa-7,10,20,21,24-pentaazapentacyclo[15.5.2.1^2,6.0^10,^14.0^20,^23]pentacosa-1(23),2,4,6(25),17(24),18,21-heptaen-11-one] was 10 to 100 nM.
Turning to `COCC1C[C@H]2COc3ccn4ncc(c4n3)-c3cc(F)cc(c3)NCCN2C1=O` (single isomer, unassigned) [Example 32], the IC50 was < 10 nM.
In the case of `COCCO[C@@H]1C[C@H]2COc3nc4c(cnn4cc3OCCCN(C)C)-c3cc(cc(OC)c3)NCCN2C1=O` [Example 127, (12R,14S)-18-[3-(dimethylamino)propoxy]-4-methoxy-12-(2-methoxyethoxy)-16-oxa-7,10,20,21,24-pentaazapentacyclo[15.5.2. 1^2,6.0^10,^14.0^20,^23]pentacosa-1(23),2,4,6(25),17(24),18,21-heptaen-11-one] it was < 10 nM; in that of `CO[C@@H]1C[C@H]2COc3ccn4ncc(c4n3)-c3cc(C#N)cc(c3)NCCN2C1=O` [Example 12, (12R,14S)-12-methoxy-11-oxo-16-oxa-7,10,20,21,24-pentaazapentacyclo[15.5.2.1^2,6.0^10,^14.0^20,23]pentacosa-1(23),2,4,6(25),17(24),18,21-heptaene-4-carbonitrile], < 10 nM; in that of `CCOc1cc2cc(c1)-c1cnn3ccc(nc13)OC[C@@H]1C[C@@H](OCCOC)C(=O)N1CCN2` (racemic) [Example 112, (12R,14S)-4-ethoxy-12-(2-methoxyethoxy)-16-oxa-7,10,20,21,24-pentaazapentacyclo[15.5.2.1^2,6.0^10,^14.0^20,^23]pentacosa-1(23),2(25),3,5,17(24),18,21-heptaen-11-one], < 10 nM.
In the case of `C#Cc1cc2cc(c1)-c1cnn3ccc(nc13)OC[C@@H]1C[C@@H](OC)C(=O)N1CCN2` [Example 70, (12R,14S)-4-ethynyl-12-methoxy-16-oxa-7,10,20,21,24-pentaazapentacyclo[15.5.2.1^2,6.0^1°,^14.0^2°,^23]pentacosa-1(23),2(25),3,5,17(24),18,21-heptaen-11-one] it was < 10 nM; in that of `COCCc1cn2ncc3c2nc1OC[C@@H]1C[C@@H](OC)C(=O)N1CCNc1cc-3cc(-n2cccn2)c1` [Example 78, (12R,14S)-12-methoxy-18-(2-methoxyethyl)-4-(1H-pyrazol-1-yl)-16-oxa-7,10,20,21,24-pentaazapentacyclo[15.5. 2.1^2,6.0^10,^14.0^20,^23]pentacosa-1(23),2(25),3,5,17(24),18, 21-heptaen-11-one], < 10 nM.
